Activity calls are given as the source filed them.
Columns and labels:
CAAX prenyl protease 2 = CAAX prenyl protease 2 (Saccharomyces cerevisiae S288c, UniProt Q03530); format: biochemical
[1] = microbe, parasite or virus in culture; format: functional; details: Mycobacterium tuberculosis
[2] = A High Throughput Confirmatory Assay used to Identify Novel Compounds that Inhibit Mycobacterium Tuberculosis in the absence of Glycerol.; format: functional
[3] = target: T1, Neuropeptide Y receptor type 1 (Homo sapiens, UniProt P25929); assay: Fluorescence-based counterscreen for agonists of NPY-Y2: cell-based high-throughput dose response assay for agonists of NPY-Y1.; format: functional
T1 sequence (P25929 whole entry): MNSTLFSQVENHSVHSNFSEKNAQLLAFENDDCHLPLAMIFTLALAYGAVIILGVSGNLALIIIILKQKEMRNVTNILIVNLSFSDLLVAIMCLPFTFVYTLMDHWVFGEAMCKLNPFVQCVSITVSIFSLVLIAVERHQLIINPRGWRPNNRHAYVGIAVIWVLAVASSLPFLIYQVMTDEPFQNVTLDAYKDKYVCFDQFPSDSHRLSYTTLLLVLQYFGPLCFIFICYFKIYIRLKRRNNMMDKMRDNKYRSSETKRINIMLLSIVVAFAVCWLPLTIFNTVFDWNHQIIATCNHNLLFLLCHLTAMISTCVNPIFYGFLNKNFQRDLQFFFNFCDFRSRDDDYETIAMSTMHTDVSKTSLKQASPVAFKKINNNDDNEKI

[4] = target: T2, Neuropeptide Y receptor type 2 (Homo sapiens, UniProt P49146); assay: Fluorescence-based cell-based high-throughput dose response assay for agonists of NPY-Y2. [Related pubchem assays: 1703 (Screening assay (CNGC inhibitors).), 1359 (Screening assay (NPY-Y2 potentiators or agonists).), 1304 (Screening assay (NPY-Y1 potentiators or agonists).), 1710 (Screening assay (NPY-Y2 agonists).), 1791 (Summary AID.)]; format: functional
T2 sequence (P49146 whole entry): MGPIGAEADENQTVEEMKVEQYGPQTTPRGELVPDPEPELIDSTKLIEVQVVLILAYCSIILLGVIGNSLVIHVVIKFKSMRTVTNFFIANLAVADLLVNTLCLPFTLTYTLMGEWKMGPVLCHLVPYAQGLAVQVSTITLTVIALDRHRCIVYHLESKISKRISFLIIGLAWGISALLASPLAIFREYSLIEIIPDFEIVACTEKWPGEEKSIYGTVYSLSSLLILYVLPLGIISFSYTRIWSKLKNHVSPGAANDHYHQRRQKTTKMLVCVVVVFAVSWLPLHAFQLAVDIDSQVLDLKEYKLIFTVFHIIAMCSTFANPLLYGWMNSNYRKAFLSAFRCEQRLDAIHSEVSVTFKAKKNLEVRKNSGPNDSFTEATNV

HEK293 = assay: Fluorescence-based counterscreen for potentiators or agonists of NPY-Y2: cell-based high-throughput dose response assay to identify inhibitors of cyclic nucleotide gated ion channel (CNGC) activity. In this assay, the parental HEK293 cell line transfected with a cyclic-nucleotide gated ion channel (CNGC)-based cAMP sensor is used to measure inhibition of isoproterenol-induced CNGC activity by test compound.; format: functional; details: Homo sapiens;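 also: stimulus is 1 µM isoproterenol at EC100 plus PDE inhibitor Ro 20-1724 at 25 µM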
[5] = target: Eukaryotic translation initiation factor 4H (Homo sapiens, UniProt Q15056); assay: human eIF4H binding inhibitors, primary screen, translation initiation inhibitor project, biochemical, uHTS, fluorescence polarization (AID 2012)
[6] = target: Polyadenylate-binding protein 1 (Homo sapiens, UniProt P11940); assay: PABP poly(A) RNA binding inhibitors, primary screen, biochemical, fluorescence polarization, uHTS (AID 2014)
Polyadenylate-binding protein 1, sequence (P11940 whole entry): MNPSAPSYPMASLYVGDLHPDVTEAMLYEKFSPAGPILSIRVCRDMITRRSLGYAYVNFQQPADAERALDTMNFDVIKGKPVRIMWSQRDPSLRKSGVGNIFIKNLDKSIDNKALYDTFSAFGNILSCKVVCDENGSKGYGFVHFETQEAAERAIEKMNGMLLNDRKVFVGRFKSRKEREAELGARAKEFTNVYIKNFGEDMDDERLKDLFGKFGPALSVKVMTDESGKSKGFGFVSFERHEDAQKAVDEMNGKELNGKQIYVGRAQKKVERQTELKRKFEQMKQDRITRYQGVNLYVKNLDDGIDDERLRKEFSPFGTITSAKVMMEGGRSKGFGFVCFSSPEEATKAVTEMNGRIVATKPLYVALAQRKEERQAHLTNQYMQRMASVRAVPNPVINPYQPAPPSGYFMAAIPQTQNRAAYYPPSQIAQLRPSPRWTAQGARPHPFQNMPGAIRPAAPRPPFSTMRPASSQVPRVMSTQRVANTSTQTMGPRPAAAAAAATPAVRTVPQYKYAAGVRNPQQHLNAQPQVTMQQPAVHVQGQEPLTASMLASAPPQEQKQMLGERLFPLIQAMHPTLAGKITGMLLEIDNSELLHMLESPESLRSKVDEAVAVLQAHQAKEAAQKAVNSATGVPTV

[7] = cytotoxicity in KRAS-transformed pancreatic duct cells, primary screen, cell-based, fluorescence, HTS (AID 431); format: functional; details: Homo sapiens;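 also: cell line used: HPDE-C7K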
[8] = cytotoxicity in HPDE-C7 cells, cell-based, fluorescence, HTS (AID 430); format: functional; details: Homo sapiens
[9] = target: T3, Ubiquitin-conjugating enzyme E2 N (Homo sapiens, UniProt P61088); format: functional;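 also: Dose-response confirmation in a TR-FRET assay detecting UBC13-driven polyubiquitin chain formation, inhibition measured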
T3 sequence (P61088 whole entry): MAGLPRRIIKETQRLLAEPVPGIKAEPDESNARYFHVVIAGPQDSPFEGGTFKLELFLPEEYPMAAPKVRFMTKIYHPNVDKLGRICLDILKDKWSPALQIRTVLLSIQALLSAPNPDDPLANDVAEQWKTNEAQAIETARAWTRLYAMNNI

[10] = target: T4, DNA dC->dU-editing enzyme APOBEC-3A (Homo sapiens, UniProt P31941); assay: Dose Response confirmation of small molecule APOBEC3A DNA Deaminase Inhibitors via a fluorescence-based single-stranded DNA deaminase assay. [Related pubchem assays (depositor defined):AID493011, AID493024]; format: functional
T4 sequence (P31941 whole entry): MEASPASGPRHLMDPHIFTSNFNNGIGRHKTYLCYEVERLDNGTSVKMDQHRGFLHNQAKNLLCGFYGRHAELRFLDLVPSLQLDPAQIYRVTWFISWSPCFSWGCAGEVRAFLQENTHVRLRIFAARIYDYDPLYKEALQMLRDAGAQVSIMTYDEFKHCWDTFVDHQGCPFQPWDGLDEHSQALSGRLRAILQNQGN

[11] = target: T5, DNA dC->dU-editing enzyme APOBEC-3G (Homo sapiens, UniProt Q9HC16); format: functional
T5 sequence (Q9HC16 whole entry): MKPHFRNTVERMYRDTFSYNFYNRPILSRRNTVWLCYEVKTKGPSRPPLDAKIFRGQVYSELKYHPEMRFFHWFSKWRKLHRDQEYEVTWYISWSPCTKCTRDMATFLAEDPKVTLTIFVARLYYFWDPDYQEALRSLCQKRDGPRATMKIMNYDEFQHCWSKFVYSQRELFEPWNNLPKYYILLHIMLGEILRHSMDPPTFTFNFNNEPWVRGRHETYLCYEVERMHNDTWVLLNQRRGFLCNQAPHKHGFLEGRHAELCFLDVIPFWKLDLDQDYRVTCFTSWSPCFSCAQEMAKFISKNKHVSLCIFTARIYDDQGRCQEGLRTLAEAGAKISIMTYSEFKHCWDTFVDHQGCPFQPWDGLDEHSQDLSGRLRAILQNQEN

Coagulation factor XII = target: T6, Coagulation factor XII (Homo sapiens, UniProt P00748); format: functional;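 also: activated factor XIIa alpha cleaving a fluorogenic AMC peptide substrate; inhibitor potency from loss of enzyme activity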
T6 sequence (P00748 whole entry): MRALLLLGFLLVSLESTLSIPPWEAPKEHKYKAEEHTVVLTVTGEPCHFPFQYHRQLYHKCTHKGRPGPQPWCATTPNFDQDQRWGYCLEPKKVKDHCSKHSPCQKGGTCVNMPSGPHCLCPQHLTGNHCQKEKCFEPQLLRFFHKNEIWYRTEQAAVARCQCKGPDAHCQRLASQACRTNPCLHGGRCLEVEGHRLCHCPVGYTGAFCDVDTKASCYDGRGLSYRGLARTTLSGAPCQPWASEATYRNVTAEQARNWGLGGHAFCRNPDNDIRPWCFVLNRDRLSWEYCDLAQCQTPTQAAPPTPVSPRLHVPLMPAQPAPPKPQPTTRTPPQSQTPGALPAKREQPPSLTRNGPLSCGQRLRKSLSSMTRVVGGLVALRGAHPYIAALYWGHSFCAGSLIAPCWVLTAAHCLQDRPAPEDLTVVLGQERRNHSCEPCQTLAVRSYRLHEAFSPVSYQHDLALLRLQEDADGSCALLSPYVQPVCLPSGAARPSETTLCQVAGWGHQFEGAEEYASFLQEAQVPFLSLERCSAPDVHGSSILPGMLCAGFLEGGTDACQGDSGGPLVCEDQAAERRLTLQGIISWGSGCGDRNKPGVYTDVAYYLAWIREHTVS

[12] = target: T5, DNA dC->dU-editing enzyme APOBEC-3G; assay: Dose Response confirmation of small molecule APOBEC3G DNA Deaminase Inhibitors via a fluorescence-based single-stranded DNA deaminase assay. [Related pubchem assays (depositor defined):AID493012, AID493028]; format: functional
cells [13] = format: functional, cell-based
[14] = target: T4, DNA dC->dU-editing enzyme APOBEC-3A; assay: APOBEC3A DNA deaminase inhibitors, dose response, biochemical (AID 504722); format: functional
cells [15] = format: functional, cell-based; remark: listed apart in the source
cells [16] = assay: cells
[17] = HEp-2 cell cytotoxicity, dose response, cytotoxicity control for RSV inhibitor project, HTS (AID 2410); format: functional; details: human respiratory syncytial virus
Leucine aminopeptidase = target: T7, Leucine aminopeptidase (Plasmodium falciparum 3D7, UniProt Q8IL11); assay: P. falciparum M17LAP inhibitors, primary screen, biochemical, fluorogenic H-Leu-NHMec substrate, 1536-well (AID 1619); format: functional
T7 sequence (Q8IL11 whole entry): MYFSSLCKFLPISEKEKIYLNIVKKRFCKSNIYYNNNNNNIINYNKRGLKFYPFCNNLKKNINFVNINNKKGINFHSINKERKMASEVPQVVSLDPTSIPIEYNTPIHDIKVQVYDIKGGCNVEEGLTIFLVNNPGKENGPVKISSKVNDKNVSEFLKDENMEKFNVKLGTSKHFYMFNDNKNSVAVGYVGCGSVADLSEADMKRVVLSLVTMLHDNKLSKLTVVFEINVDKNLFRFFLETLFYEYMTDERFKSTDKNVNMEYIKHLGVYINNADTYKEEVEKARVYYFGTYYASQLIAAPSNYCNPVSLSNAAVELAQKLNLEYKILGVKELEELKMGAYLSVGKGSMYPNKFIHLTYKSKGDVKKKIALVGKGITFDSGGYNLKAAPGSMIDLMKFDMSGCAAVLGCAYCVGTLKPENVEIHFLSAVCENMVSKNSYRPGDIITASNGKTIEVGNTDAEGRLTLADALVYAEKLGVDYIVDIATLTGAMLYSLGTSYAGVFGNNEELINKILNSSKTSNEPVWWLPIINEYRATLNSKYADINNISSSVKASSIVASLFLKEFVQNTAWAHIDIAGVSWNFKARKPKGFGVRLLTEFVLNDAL

Aspartyl aminopeptidase = target: T8, Aspartyl aminopeptidase (Plasmodium falciparum 3D7, UniProt Q8I2J3); assay: Counterscreen for inhibitors of M1 and M17 aminopeptidases: QFRET-based biochemical high throughput dose response assay for inhibitors of the Plasmodium falciparum M18 Aspartyl Aminopeptidase (PFM18AAP). [Related PubChem assays: 1619 (Screening assay (M17LAP inhibitors).), 1445 (Screening assay (M1AAP inhibitors).)]
T8 sequence (Q8I2J3 whole entry): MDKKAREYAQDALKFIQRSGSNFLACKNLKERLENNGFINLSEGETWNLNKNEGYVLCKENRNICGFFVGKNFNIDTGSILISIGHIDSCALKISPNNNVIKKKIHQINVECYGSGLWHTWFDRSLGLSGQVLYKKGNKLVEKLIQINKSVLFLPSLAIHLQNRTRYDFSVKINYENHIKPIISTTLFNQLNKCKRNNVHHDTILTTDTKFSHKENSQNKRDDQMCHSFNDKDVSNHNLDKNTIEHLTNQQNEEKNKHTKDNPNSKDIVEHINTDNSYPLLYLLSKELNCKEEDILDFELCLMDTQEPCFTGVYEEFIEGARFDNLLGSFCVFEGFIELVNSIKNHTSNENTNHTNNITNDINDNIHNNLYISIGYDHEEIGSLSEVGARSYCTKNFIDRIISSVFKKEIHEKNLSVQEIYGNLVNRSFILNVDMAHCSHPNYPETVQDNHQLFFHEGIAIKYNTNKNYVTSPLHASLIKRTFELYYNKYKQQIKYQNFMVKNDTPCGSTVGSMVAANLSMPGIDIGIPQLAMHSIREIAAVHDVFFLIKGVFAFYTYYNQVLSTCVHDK

Procathepsin L = Procathepsin L (Homo sapiens, UniProt P07711); assay: cathepsin L inhibitors, dose response, counter-screen for M1/M17 aminopeptidase inhibitor project, biochemical, QFRET, 1536-well (AID 2214)
Procathepsin L, sequence (P07711 whole entry): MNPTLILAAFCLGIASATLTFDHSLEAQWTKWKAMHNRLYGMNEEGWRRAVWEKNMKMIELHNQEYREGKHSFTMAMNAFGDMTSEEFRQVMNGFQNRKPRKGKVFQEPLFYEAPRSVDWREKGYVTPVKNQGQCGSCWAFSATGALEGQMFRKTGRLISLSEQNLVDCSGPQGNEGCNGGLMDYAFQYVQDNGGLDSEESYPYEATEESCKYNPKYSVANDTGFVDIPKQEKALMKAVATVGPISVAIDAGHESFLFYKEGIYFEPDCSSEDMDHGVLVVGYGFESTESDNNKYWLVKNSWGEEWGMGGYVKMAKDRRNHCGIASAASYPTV

[18] = target: Peroxisome proliferator-activated receptor gamma/Nuclear receptor coactivator 3 (Homo sapiens, UniProt P37231); assay: TR-FRET dose response biochemical High Throughput Screening assay for agonists of the steroid receptor coactivator 3 (SRC-3) recruitment by the peroxisome proliferator-activated receptor gamma (PPAR gamma): non-selective agonists. [Related pubchem assays: 1301 (Confirmation screen.), 1048 (Primary screen.)]; format: functional
[19] = target: Peroxisome proliferator-activated receptor gamma/Nuclear receptor coactivator 2 (Homo sapiens, UniProt P37231); assay: (§1) TR-FRET dose response biochemical High Throughput Screening assay for agonists of the steroid receptor coactivator 2 (SRC-2) recruitment by the peroxisome proliferator-activated receptor gamma (PPAR gamma): non-selective agonists. [Related pubchem assays: 1297, 1032 ]; format: functional
Peroxisome proliferator-activated receptor gamma/Nuclear receptor coactivator 2, sequence (P37231 whole entry): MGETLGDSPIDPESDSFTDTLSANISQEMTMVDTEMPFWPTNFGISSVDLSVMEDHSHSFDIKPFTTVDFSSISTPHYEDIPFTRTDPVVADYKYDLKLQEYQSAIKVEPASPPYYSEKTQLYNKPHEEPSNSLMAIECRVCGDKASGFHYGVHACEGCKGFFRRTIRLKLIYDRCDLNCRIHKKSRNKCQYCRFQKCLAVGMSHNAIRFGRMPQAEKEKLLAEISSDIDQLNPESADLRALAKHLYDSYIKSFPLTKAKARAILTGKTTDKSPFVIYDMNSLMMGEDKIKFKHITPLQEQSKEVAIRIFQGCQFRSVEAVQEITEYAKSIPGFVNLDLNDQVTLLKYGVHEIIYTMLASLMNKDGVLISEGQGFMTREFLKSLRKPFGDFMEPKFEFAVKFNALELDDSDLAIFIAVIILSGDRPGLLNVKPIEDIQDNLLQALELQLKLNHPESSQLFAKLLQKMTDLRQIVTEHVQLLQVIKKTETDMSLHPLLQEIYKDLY
Peroxisome proliferator-activated receptor gamma/Nuclear receptor coactivator 2, sequence (Q15596 whole entry, further chain): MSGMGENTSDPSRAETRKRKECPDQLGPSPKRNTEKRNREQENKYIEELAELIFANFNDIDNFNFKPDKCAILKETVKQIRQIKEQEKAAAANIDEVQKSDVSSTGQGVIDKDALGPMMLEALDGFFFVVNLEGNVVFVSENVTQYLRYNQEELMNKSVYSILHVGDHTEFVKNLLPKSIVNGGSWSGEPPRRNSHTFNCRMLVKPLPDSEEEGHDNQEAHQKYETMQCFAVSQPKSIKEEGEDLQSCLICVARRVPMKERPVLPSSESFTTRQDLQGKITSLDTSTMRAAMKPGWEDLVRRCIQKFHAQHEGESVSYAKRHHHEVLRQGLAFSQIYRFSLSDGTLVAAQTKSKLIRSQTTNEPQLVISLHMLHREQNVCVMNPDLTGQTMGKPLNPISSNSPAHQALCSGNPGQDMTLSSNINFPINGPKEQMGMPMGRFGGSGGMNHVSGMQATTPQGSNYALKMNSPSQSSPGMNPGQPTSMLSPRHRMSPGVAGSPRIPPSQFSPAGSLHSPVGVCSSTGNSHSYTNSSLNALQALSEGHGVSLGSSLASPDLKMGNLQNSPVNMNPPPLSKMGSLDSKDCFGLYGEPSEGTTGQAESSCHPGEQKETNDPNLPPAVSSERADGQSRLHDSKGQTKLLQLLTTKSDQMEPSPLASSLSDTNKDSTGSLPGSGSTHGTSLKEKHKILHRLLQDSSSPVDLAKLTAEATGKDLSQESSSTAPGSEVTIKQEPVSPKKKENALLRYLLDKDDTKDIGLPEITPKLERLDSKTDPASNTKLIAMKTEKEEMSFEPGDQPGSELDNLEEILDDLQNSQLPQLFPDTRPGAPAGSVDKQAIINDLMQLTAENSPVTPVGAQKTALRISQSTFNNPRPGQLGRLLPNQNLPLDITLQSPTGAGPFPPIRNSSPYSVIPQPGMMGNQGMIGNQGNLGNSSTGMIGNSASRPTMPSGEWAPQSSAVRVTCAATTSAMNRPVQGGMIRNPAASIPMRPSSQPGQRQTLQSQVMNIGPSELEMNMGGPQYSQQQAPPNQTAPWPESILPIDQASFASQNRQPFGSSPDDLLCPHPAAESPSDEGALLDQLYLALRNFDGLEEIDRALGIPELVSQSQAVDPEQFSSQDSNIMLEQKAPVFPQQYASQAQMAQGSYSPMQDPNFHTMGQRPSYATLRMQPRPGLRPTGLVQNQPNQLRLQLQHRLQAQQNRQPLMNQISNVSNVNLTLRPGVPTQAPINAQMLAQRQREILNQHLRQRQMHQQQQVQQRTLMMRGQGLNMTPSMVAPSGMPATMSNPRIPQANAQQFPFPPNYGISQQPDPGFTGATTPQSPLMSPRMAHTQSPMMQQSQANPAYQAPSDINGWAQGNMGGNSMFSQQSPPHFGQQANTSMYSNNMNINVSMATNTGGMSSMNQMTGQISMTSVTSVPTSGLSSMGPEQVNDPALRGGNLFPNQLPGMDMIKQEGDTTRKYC

[20] = target: Peroxisome proliferator-activated receptor gamma/Nuclear receptor coactivator 1 (Homo sapiens, UniProt P37231); assay: as §1, with “1 (SRC-1)” for “2 (SRC-2)”, “assays (depositor defined):AID1300, AID1808, AID504735, AID631]” for “assays: 1297, 1032 ]”; format: protein assay
[21] = target: FAD-linked sulfhydryl oxidase ALR (Homo sapiens, UniProt P55789); assay: inhibitors of human ALR sulfhydryl oxidase, dose response, biochemical, H2O2 detection, luminescence, cherry-pick (AID 493248)
FAD-linked sulfhydryl oxidase ALR, sequence (P55789 whole entry): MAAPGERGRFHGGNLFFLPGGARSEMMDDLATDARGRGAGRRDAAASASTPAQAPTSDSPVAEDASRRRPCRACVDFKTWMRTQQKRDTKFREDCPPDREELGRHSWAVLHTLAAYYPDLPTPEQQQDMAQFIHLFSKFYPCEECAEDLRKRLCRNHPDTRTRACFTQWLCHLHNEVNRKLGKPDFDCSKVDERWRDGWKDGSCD

CAAX prenyl protease 2, sequence (Q03530 whole entry): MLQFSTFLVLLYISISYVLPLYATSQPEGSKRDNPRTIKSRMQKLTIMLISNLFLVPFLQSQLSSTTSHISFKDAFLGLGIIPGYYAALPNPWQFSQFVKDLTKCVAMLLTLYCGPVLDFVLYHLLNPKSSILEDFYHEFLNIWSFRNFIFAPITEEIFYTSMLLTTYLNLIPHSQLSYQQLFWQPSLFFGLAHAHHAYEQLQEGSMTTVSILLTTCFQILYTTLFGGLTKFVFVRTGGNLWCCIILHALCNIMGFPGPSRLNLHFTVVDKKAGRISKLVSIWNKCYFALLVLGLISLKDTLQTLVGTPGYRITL

Nc1c(Cl)cc(C2=NCCn3nc4cc(C(F)(F)F)ccc4c32)cc1Cl
AC50 (CAAX prenyl protease 2): 5.28 µM (active)

Cc1sc2ncnc(N3CCC(C(=O)N(CC(C)C)c4nc5ccccc5s4)CC3)c2c1C
CC50 [1]: > 40 µM (active) | IC50 [2]: > 100 µM (active)

CCc1cc[n+](/C(C([S-])=Nc2cccc(C)c2)=C(/O)c2ccc(C)c([N+](=O)[O-])c2)cc1
EC50 [3]: > 35.4 µM (not active) | EC50 [4]: > 35.4 µM (not active) | EC50 (HEK293): > 35.4 µM (not active)

CN(Cc1cccc(Cl)c1)C(=O)C1CSC2(C)CCC(=O)N12 (configuration not stated)
IC50 [5]: > 100 µM (inactive) | IC50 [6]: 29.4 µM (active)

CCc1c(C)nc(N)nc1OCC(F)(F)C(F)F
EC50 [7]: > 20 µM (not active) | EC50 [8]: > 20 µM (not active)

Cc1ccc2c(c1)C1C[N+](C)(CC(=O)c3ccc(Cl)cc3Cl)CCC1N2C(=O)c1ccc(F)cc1 (configuration not stated)
IC50 [9]: > 20 µM (inactive) | IC50 [10]: 2.65 µM (active) | IC50 [11]: 2.88 µM (active)

COc1cc(COCC(O)CN2CCOCC2)cc(OC)c1OC (configuration not stated)
IC50 (Coagulation factor XII): > 50 µM (inactive)

CCn1c(C)cc(/C=C2\NC(=O)N(CC(=O)Nc3ccc(F)cc3)C2=O)c1C
IC50 [10]: 1.24 µM (active) | IC50 [11]: 2.2 µM (active)

Sc1nnc(-c2ccco2)n1/N=C/c1cccs1
IC50 [12]: 3.28 µM (active) | EC50 (cells [13]): > 350 µM (not active) | IC50 [14]: > 100 µM (inactive) | EC50 (cells [15]): > 350 µM (not active)

CCCCCNc1nc(N2CCCC2)c2c(c1C#N)CCN(C)C2
CC50 [1]: > 40 µM (active) | IC50 [2]: > 100 µM (active)

COc1ccc(S(=O)(=O)NCc2ccco2)cc1-c1nnc2c3ccccc3c(C)nn12
IC50 (cells [16]): 11.2 µM (active)

Cc1ccc(O)c(-c2cc(-c3ccccc3C)[nH]n2)c1
EC50 [7]: 8.16 µM (active) | EC50 [8]: 11 µM (active)

COc1cc2ccccc2cc1C(=O)N(CCN(C)C)c1nc2ccc(C)cc2s1
AC50 (CAAX prenyl protease 2): 11.3 µM (active)

Cc1cc(Nc2ccccc2Cl)nc(-c2ccccc2O)n1
IC50 (cells [16]): 34.7 µM (active) | CC50 [17]: 38.5 µM (active)

Cc1cccc(NC(=O)CSc2nc(O)c(C#N)c(-c3ccccc3)n2)c1C
IC50 (Leucine aminopeptidase): 5.37 µM (active) | IC50 (Aspartyl aminopeptidase): > 73.5 µM (not active) | IC50 (Procathepsin L): > 59.6 µM (not active)

Cc1cccc(-n2c(S)nnc2-c2ccco2)c1
EC50 [18]: > 79.4 µM (not active) | IC50 [12]: 6.36 µM (active) | EC50 [19]: > 79.4 µM (not active) | EC50 [20]: > 79.4 µM (inactive) | IC50 [14]: > 100 µM (inactive) | AC50 [21]: 5.51 µM (active)
